Measured values reported in ChEMBL document CHEMBL1123329, “Aromatase inhibitors. Synthesis and evaluation of mammary tumor inhibiting activity of 3-alkylated 3-(4-aminophenyl)piperidine-2,6-diones” (J Med Chem, 1986).
Values joined by “and” are separate entries in the source; they are usually repeats but may differ in a detail not shown here. Identical values can stand only once.

Key:
[1] = species: Rattus norvegicus; format: functional; conditions: dose 20 mg/kg
[2] = species: Rattus norvegicus; format: functional; conditions: dose 20 mg/kg; remark: listed apart in the source

For `C[C@]12CC[C@H]3[C@@H](CCC4=CC(=O)CC[C@@]43C)[C@@H]1CC[C@@H]2O` [TESTOSTERONE], the “Change of tumor area” value [1] was -37% and -24% and -29% and the Uterine weight effect [2] was 23.3 and 29.3 and 34.7.
